The values below are quoted from earlier work in patent publication US9683008B2, “Synthetic bile acid compositions and methods” (Kythera Biopharmaceuticals, Inc., priority 2010, dated 2017).

Molecules are shown by their SMILES.

One series has as its target albumin (Homo sapiens, UniProt P02768). Conditions: 0.4 mg/mL deoxycholate (comparable to the fasting state), in the presence of 26 mg/mL of albumin.
The conditions of series [1]: neutral pH.

Sequence of albumin (P02768 25-609): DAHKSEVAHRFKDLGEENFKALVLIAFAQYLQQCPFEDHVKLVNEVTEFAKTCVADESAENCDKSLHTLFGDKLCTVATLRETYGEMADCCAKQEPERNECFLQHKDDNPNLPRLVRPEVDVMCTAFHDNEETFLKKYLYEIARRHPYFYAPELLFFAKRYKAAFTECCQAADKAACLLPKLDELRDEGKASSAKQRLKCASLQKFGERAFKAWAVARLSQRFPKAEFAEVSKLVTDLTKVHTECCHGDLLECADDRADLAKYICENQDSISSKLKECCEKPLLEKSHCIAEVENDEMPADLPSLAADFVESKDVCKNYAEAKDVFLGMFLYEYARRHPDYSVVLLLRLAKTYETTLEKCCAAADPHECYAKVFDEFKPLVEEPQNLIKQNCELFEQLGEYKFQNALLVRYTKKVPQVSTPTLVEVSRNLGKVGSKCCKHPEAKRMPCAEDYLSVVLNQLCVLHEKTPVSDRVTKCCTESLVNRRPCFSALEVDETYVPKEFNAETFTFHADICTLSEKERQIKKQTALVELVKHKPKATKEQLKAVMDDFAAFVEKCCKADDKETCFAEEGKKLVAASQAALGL

Take `C[C@H](CCC(=O)[O-])[C@H]1CC[C@H]2[C@@H]3CC[C@@H]4C[C@H](O)CC[C@]4(C)[C@H]3C[C@H](O)[C@]12C.[Na+]` [sodium deoxycholate]: the bound to albumin on albumin is 98%. The solubility in acetone result (acetone, compared with alcohol) is on record as “even less soluble”. For the same compound, the “solubility in glacial acetic acid” value (glacial acetic acid, compared with alcohol) was “even less soluble”. For the setting “water”, the soluble in water was 333 mg/mL. Moreover, in series [1], the critical micelle concentration entry is “approximately 2.4 mg/mL”.
